Measurements reported in patent publication US10617664B2, “Brain derived PPARα ligands” (Rush University Medical Center, priority 2015, dated 2020).

Tested on: NR2A, GluR1 and CREB
Experiment: Immunoblot and immunofluorescence of synaptic molecules in Ppara-null hippocampal neurons
Format: cell-based, mouse
Conditions: 5 μM HEX, 5 μM OCT, 50 μM HMB
Experimental: (FIG. 17A) Immunoblot analyses followed by densitometric analyses of NR2A (FIG. 17B), GluR1 (FIG. 17C) and CREB (FIG. 17D) were performed in Ppara-null and WT hippocampal neurons treated with 5 μM HEX, 5 μM OCT and 50 μM HMB. Data are mean±SD of three different experiments. ^ap<0.05 versus WT-control. Immunocytochemical analyses of NR2A (FIG. 17E) and GluR1 (FIG. 17F) in WT and Ppara-null hippocampal neurons treated with HEX, OCT and HMB. Hippocampal neurons were transduced with lenti-GFP for 48 h followed by treatment with different ligands. Immunoblot analyses followed by relative densitometric analyses of CREB in Ppara-null hippocampal neurons transduced with lentivirions containing different Ppara constructs followed by treatment with HEX (FIG. 17G-H), OCT (FIG. 17I-J) and HMB (FIG. 17K-L). Bands were scanned and presented as relative to control (FIG. 17H, HEX; FIG. 17J, OCT; FIG. 17L, HMB). Data are mean±SD of three different experiments. ^ap<0.05 vs FLPpara control.
Isolation of Mouse Hippocampal Neurons: Hippocampal neurons were isolated from fetuses (E18) of pregnant female Ppara-null and strain-matched WT littermate mice as described by us^6,13,35-36 with some modifications. Briefly, dissection and isolation procedures were performed in an ice-cold, sucrose buffer solution (sucrose 0.32 M, Tris 0.025 M; pH 7.4)^37. The skin and the skull were carefully removed from the brain by scissors followed by peeling off the meninges by a pair of fine tweezers. Next, a fine incision was made in the middle line around the circle of Willis and medial temporal lobe was opened up. Hippocampus was isolated as a thin slice of tissue located near the cortical edge of medial temporal lobe. Hippocampal tissues isolated from all fetal pups (n>10) were combined together and homogenized with 1 ml of trypsin for 5 minutes at 37° C. followed by neutralization of trypsin. The single cell suspension of hippocampal tissue was plated in the poly-D-lysine pre-coated 75 mm flask. Five min after plating, the supernatants were carefully removed and replaced with complete neurobasal media. The next day, 10 μM AraC was added to remove glial contamination in the neuronal culture. The pure cultures of hippocampal neurons were allowed to differentiate fully for 9-10 days before treatment^35,36,38.
For whole-cell and tissue lysates, samples were homogenized in RIPA buffer containing protease and phosphatase inhibitors (Sigma), passed 10 times through a 26-gauge needle, rotated end over end for 30 min at 4° C., and centrifuged for 10 min at 18,000×g. The supernatant was aliquoted and stored at −80° C. until use. Protein concentrations were determined using a NanoDrop 2000 (Thermo Fisher), and 15-30 μg sample was heat-denatured and resolved on 10% or 12% polyacrylamide-SDS gels, transferred to 0.45 μm nitrocellulose membranes under semidry conditions (15V for 12 min). Membranes were blocked for 1 h with blocking buffer (Li-Cor), incubated with primary antibodies overnight at 4° C. under shaking conditions, washed, incubated with IR-dye-labeled secondary antibodies (1:17,000; Li-Cor) for 45 min at room temperature, washed, and visualized with the Odyssey Infrared Imaging System (Li-Cor). Blots were converted to grayscale and then binary, analyzed using Fiji, and normalized to appropriate loading controls.

Row | Structure (SMILES) | expression of CREB | expression of NR2A
1 | CCCCCCCCCCCCCCCC(N)=O [HEX, hexadecanamide] | not | not
2 | CCOC(=O)C(C)(C)C(C)O (stereo not drawn) [HMB] | not | not
3 | CCCCCCCCC=CCCCCCCCC(N)=O [OCT, 9-octadecenamide] | not | not
